Consider 3 compounds from patent US20060216346A1, “Dosage form containing (s)-pantoprazole as active ingredient” (priority 2003, published 2006).

Read-outs that look alike come from different tables or passages of the source.

The nature of one data set: Wettability. Conditions: compared to the racemic pantoprazole magnesium dihydrate. It counts as physicochemical. From the text: (§1) This absorption of water is reversible, so that it is difficult to adjust an exact water content.
Data set [1] can be described thus: Hygroscopicity / absorption of water. The format is physicochemical. As for the experimental part: as §1
Drying is carried out in a vacuum drying cabinet at <50 mbar and 40-45° C. [It is also possible to dispense with drying and to use the moist product (having an MIBK content of 10-20%) directly for step B]. The white-beige crystalline product obtained after drying is hygroscopic. The water content is from 2 to 12%. The absorption and release of water are reversible. Yield: 34 g=90% of theory (based on anhydrous product). Specific rotation: aD^20+=−95 (c=0.5, measured in methanol, sodium salt having a water content of 12%). m.p.: 145-165° C. (decomposition, sodium salt having a water content of 2%); 102-109° C. (decomposition, sodium salt having a water content of 12%).

The nature of a further data set: Dissolution rate. The format is physicochemical. As to conditions: compared to the racemic pantoprazole magnesium dihydrate.
From the text: as §1

Data set [2] is described as follows: Stability of the salt at 70° C. for one week. As to conditions: for discolouration and decomposition: identical conditions. The format is physicochemical.
From the text: Pantoprazole is the INN (International Nonproprietary Name) for the compound 5-difluoromethoxy-2-[(3,4-dimethoxy-2-pyridinyl)methylsulfinyl]-1H-benzimidazole. The magnesium salt of pantoprazole is the chemical compound magnesium bis[5-[difluoromethoxy]-2-[[3,4-dimethoxy-2-pyridinyl]methyl]sulfinyl]-1H-benzimidazolide]. The magnesium salt of (S)-pantoprazole [hereinafter also referred to as (−)-pantoprazole] and its hydrates in connection with the invention refers to the compound magnesium (−)-bis{[5-(difluoromethoxy)]-2-[(3,4-dimethoxy-2-pyridinyl)methylsulphinyl]-1H-benzimidazolide} including hydrates thereof. Here, particular emphasis is given to hydrates, which, after drying under reduced pressure at 50° C., have a water content of from 4.0 to 6.7% (by weight), in particular from 4.0 to 5.5%. Particular preference is given to the hydrate form which has a water content of from 4.0 to 5.0%, in particular from 4.2 to 4.4%, which corresponds to a dihydrate. The magnesium salt and its hydrates have highly surprising stability properties, making it a particularly suitable candidate for use in solid or oral dosage forms.
as §1

A further data set in a line: Solubility at pH 7.4. Conditions: at pH 7.4, compared to the racemic pantoprazole magnesium dihydrate. The format is physicochemical.
From the text: as §1

The conditions of data set [3]: in comparison to pantoprazole itself or to pantoprazole sodium sesquihydrate; WO00/10995; cited from earlier work.

As to `COc1ccnc(C[S+]([O-])c2nc3cc(OC(F)F)ccc3[n-]2)c1OC.COc1ccnc(C[S+]([O-])c2nc3cc(OC(F)F)ccc3[n-]2)c1OC.O.O.[Mg+2]` (single isomer, unassigned; (-)) [(−)-pantoprazole magnesium dihydrate, Magnesium (−)-bis{[5-(difluoromethoxy)]-2-[(3,4-dimethoxy-2-pyridinyl)methylsulphinyl]-1H-benzimidazolide}dihydrate], the wettability entry in the data set “Wettability” is “better”. Also, the hygroscopicity entry in data set [1] is “non-hygroscopic”. The dissolution rate result in the data set “Dissolution rate” is given as “considerably higher”. Further, in data set [2] (at 70° C., one week), the stability result is on record as “completely stable”; the discolouration and decomposition result is on record as “virtually no discolouration or decomposition”. Besides, the stability properties entry in data set [2] (compared to the sodium salt of (−)-pantoprazole) was “considerably improved stability properties”. Further, the solubility entry in “Solubility at pH 7.4” is given as “better”.
Take `COc1ccnc(C[S+]([O-])c2nc3cc(OC(F)F)ccc3[n-]2)c1OC.[Na+]` (single isomer, unassigned; (-)) [(−)-pantoprazole sodium]: the hygroscopicity entry is “absorbs water depending on drying conditions and atmospheric humidity” in data set [1]; “hygroscopic” in data set [1] (listed as (−)-Pantoprazole-Na). For the same compound, in data set [2] (at 70° C., one week), the discolouration and decomposition result was “changes to brown, with formation of considerable amounts of decomposition products”.
For `COc1ccnc(C[S+]([O-])c2nc3cc(OC(F)F)ccc3[n-]2)c1OC.COc1ccnc(C[S+]([O-])c2nc3cc(OC(F)F)ccc3[n-]2)c1OC.[Mg+2]` (centres unmarked) [magnesium bis[5-[difluoromethoxy]-2-[[3,4-dimethoxy-2-pyridinyl]methyl]sulfinyl]-1H-benzimidazolide]], the stability properties entry in data set [3] was “improved stability properties”.
